From publication PMC12142043, “Cell-based high-content approach for SARS-CoV-2 neutralization identifies unique monoclonal antibodies and PI3K pathway inhibitors” (Frontiers in Cell and Developmental Biology, 2025)
Counter-ions that a name gives are not always drawn. Like-named read-outs stand apart in the source and are kept apart here.

Test system: SARS-CoV-2 (USA-WA1/2020) in Calu-3 cells
Format: cell-based
[1] = high dose (10 µM), Calu-3, 48 h
[2] = low dose (100 nM), Calu-3, 48 h

| SMILES | dsRNA signal, AU High [1] | dsRNA signal, AU Low [2] | dsRNA signal, AU High | dsRNA signal, AU Low |
| --- | --- | --- | --- | --- |
| O=C(NC1CCOCC1)c1ccc(-c2cc(-c3c[nH]nc3-c3ccccn3)ccn2)cc1 [GW788388] | 8820.5 AU | 0.0 AU | – | – |
| Cc1ccc(C(=O)Nc2ccc(CN3CCN(C)CC3)c(C(F)(F)F)c2)cc1C#Cc1cnc2[nH]ncc2c1 [GZD824] | 64275.0 AU | 33439.8 AU | – | – |
| O=c1c(O)c(-c2ccccc2)oc2cc(O)cc(O)c12 [Galangin;3,5,7-Trihydroxyflavone] | 16189.5 AU | 46015.9 AU | – | – |
| COc1cc2ncnc(Nc3ccc(F)c(Cl)c3)c2cc1OCCCN1CCOCC1.Cl [Gefitinib hydrochloride] | – | – | 0.0 | 28000.5 |
| CC(C)=CCC[C@](C)(O[C@@H]1O[C@H](CO[C@@H]2O[C@H](CO)[C@@H](O)[C@H](O)[C@H]2O)[C@@H](O)[C@H](O)[C@H]1O)[C@H]1CC[C@]2(C)[C@@H]1[C@H](O)C[C@@H]1[C@@]3(C)CC[C@H](O[C@@H]4O[C@H](CO)[C@@H](O)[C@H](O)[C@H]4O[C@@H]4O[C@H](CO)[C@@H](O)[C@H](O)[C@H]4O)C(C)(C)[C@@H]3CC[C@]12C [Ginsenoside Rb1] | 7414.4 AU | 52585.8 AU | – | – |
| CC(C)=CCC[C@](C)(O[C@@H]1O[C@H](CO)[C@@H](O)[C@H](O)[C@H]1O)[C@H]1CC[C@]2(C)[C@@H]1[C@H](O)C[C@@H]1[C@@]3(C)CC[C@H](O)C(C)(C)[C@@H]3[C@@H](O[C@@H]3O[C@H](CO)[C@@H](O)[C@H](O)[C@H]3O[C@@H]3O[C@@H](C)[C@H](O)[C@@H](O)[C@H]3O)C[C@]12C [Ginsenoside Re] | 10054.1 AU | 65920.2 AU | – | – |
| CC(C)=CCC[C@](C)(O)[C@H]1CC[C@]2(C)[C@@H]1[C@H](O)C[C@@H]1[C@@]3(C)CC[C@H](O[C@@H]4O[C@H](CO)[C@@H](O)[C@H](O)[C@H]4O)C(C)(C)[C@@H]3CC[C@]12C [Ginsenoside Rh2] | 41827.1 AU | 30569.1 AU | – | – |
| COc1ccc2c(c1)c(C1=C(c3c[nH]c4ccccc34)C(=O)NC1=O)cn2CCCN(C)C [Go 6983] | 52923.0 AU | 26190.1 AU | – | – |
| CN1CCN(C2CCN(C(=O)Nc3cc(Oc4ccc(NC(=O)C5(C(=O)Nc6ccc(F)cc6)CC5)c(F)c4)ccn3)CC2)CC1 [Golvatinib (E7050)] | 36777.1 AU | 23267.5 AU | – | – |
| Cl.Cl.O=S(=O)(NCCNC/C=C/c1ccc(Br)cc1)c1cccc2cnccc12 [H 89 2HCl] | 7807.6 AU | 56279.7 AU | – | – |
| Cl.O=S(=O)(c1cccc2cnccc12)N1CCNCC1 [HA-100 (hydrochloride)] | 27295.9 AU | 14084.7 AU | – | – |
| CCOC(=O)c1cnc2ccc(-c3cncc(NS(=O)(=O)c4ccccc4)c3)cn12 [HS-173] | 345.7 AU | 31987.4 AU | – | – |
| Cc1nc(Nc2cnn(C3CCNCC3)c2)nc2c1N(C)C(=O)c1cc3ccccc3cc1N2C [HTH-01-015] | 4731.3 AU | 21129.9 AU | – | – |
| COc1ccc2c(c1)[nH]c1c(C)nccc12 [Harmine hydrochloride] | 0.0 AU | 53937.1 AU | – | – |
| COc1ccc2c(c1)[nH]c1c(C)nccc12 [Harmine] | 9958.7 AU | 24294.0 AU | – | – |
| Cl.O=c1[nH]ccc2c(S(=O)(=O)N3CCCNCC3)cccc12 [Hydroxyfasudil hydrochloride] | 2331.1 AU | 751.7 AU | – | – |
| COc1cc(OC)c(C=C2C(O)=Nc3ccccc32)c(OC)c1 [IC261] | 6564.9 AU | 46952.8 AU | – | – |
| O=C(Nc1cc(C(F)(F)F)cc(C(F)(F)F)c1)c1cc(Cl)ccc1O [IMD 0354] | 3341.9 AU | 20862.1 AU | – | – |
| CNC(=O)c1ccc(-c2cnc3ncc(Cc4ccc5ncccc5c4)n3n2)cc1F [INCB28060] | 59276.3 AU | 63091.3 AU | – | – |
| COc1cc(N2CCOCC2)ccc1NC(=O)c1csc(-c2cccnc2)n1 [IRAK inhibitor 6] | 19776.5 AU | 7334.0 AU | – | – |
| O=C(Nc1nc2ccccc2n1CCN1CCOCC1)c1cccc([N+](=O)[O-])c1 [IRAK-1-4 Inhibitor I] | 21347.7 AU | 22363.0 AU | – | – |
| C#Cc1cccc(Nc2ncnc3cc4c(cc23)OCCOCCOCCO4)c1 [Icotinib] | 11365.1 AU | 24561.1 AU | – | – |
| Nc1nc(Nc2ccc(S(N)(=O)=O)cc2)nn1C(=O)c1c(F)cccc1F [JNJ-7706621] | 0.0 AU | 4378.3 AU | – | – |

| SMILES | dsRNA signal, AU High [1] | dsRNA signal, AU Low [2] | dsRNA signal, AU High | dsRNA signal, AU Low |
| --- | --- | --- | --- | --- |
| Cn1cc(-c2ccc3nnc(C(F)(F)c4ccc5ncccc5c4)n3n2)cn1 [JNJ-38877605] | 9345.0 AU | 32468.4 AU | – | – |
| CN(C)C/C=C/C(=O)Nc1cccc(C(=O)Nc2ccc(Nc3nccc(-c4cccnc4)n3)cc2)c1 [JNK-IN-7] | 66910.1 AU | 45982.8 AU | – | – |
| COc1cc(-c2cc(-c3cccc(O)c3)cnc2N)cc(OC)c1OC [K02288] | 4456.5 AU | 7061.1 AU | – | – |
| COc1ccc(S(=O)(=O)Nc2ccccc2CN(C)C/C=C/c2ccc(Cl)cc2)cc1.Cl [KN-92 hydrochloride] | 0.0 AU | 14359.5 AU | – | – |
| COc1ccc(S(=O)(=O)Nc2ccccc2CN(C)C/C=C/c2ccc(Cl)cc2)cc1.O=P(O)(O)O [KN-92 phosphate] | 4429.3 AU | 16946.8 AU | – | – |
| COc1ccc(S(=O)(=O)N(CCO)c2ccccc2CN(C)C/C=C/c2ccc(Cl)cc2)cc1.O=P(O)(O)O [KN-93 Phosphate] | 4943.4 AU | 2840.4 AU | – | – |
| Nc1ccc(/C=C/C(=O)NCc2cc3cc(-c4ccc(C(=O)N5CCC(F)(F)CC5)cc4)cc(-c4ccc(F)cc4)c3o2)cn1 [KPT-9274] | 6803.0 AU | 25813.6 AU | – | – |
| CCCNC(=O)Nc1ccc(Oc2ncnc3cc(OC)c(OC)cc23)cc1Cl [KRN 633] | 55097.1 AU | 35164.2 AU | – | – |
| O=c1cc(-c2cccc3c2Sc2ccccc2S3)oc(N2CCOCC2)c1 [KU 55933] | 33867.0 AU | 52307.6 AU | – | – |
| C[C@@H]1CN(CC(=O)Nc2ccc3c(c2)Cc2cccc(-c4cc(=O)cc(N5CCOCC5)o4)c2S3)C[C@H](C)O1 [KU-60019] | 31471.9 AU | 10671.9 AU | – | – |
| COc1cc2nccc(Oc3ccc(NC(=O)Nc4ccc(F)cc4F)c(F)c3)c2cc1OC [Ki8751] | 16810.1 AU | 45822.4 AU | – | – |
| COc1cc(Oc2ccnc3cc(OC)c(OC)cc23)ccc1NC(=O)NC(C)c1nccs1 (centres unmarked) [Ki20227] | 0.0 AU | 13064.0 AU | – | – |
| CC(C)C[C@H](N)C(=O)O [L-Leucine] | 3716.4 AU | 18120.1 AU | – | – |
| COc1ccccc1-c1cc(Nc2cccc(CS(N)(=O)=O)c2)ncn1 [LDC000067] | 31035.0 AU | 20712.1 AU | – | – |
| Cl.c1ccc2c(-c3cnn4cc(-c5ccc(N6CCNCC6)cc5)cnc34)ccnc2c1 [LDN193189 Hydrochloride] | 42525.8 AU | 24650.0 AU | – | – |
| c1ccc2c(-c3cnn4cc(-c5ccc(N6CCNCC6)cc5)cnc34)ccnc2c1 [LDN-193189] | 30043.0 AU | 7399.9 AU | – | – |
| COc1cc(-c2cc(-c3ccc(N4CCNCC4)cc3)cnc2C)cc(OC)c1OC [LDN-214117] | 4693.4 AU | 28899.6 AU | – | – |
| C/C(O)=C(\C#N)C(=O)Nc1cc(Br)ccc1Br [LFM-A13] | 60025.3 AU | 42758.8 AU | – | – |
| c1ccc(-c2[nH]ncc2-c2ccnc3ccccc23)nc1 [LY364947] | 12638.5 AU | 3456.2 AU | – | – |
| O=C1NC(=O)C(c2cnc3ccccn23)=C1c1cn2c3c(cc(F)cc13)CN(C(=O)N1CCCCC1)CC2 [LY2090314] | 16169.3 AU | 7523.7 AU | – | – |
| c1ccc(-c2nn3c(c2-c2ccnc4cc(OCCN5CCOCC5)ccc24)CCC3)nc1 [LY2109761] | 9694.6 AU | 5823.5 AU | – | – |
| Cc1cccc(-c2nn3c(c2-c2ccnc4ccc(C(N)=O)cc24)CCC3)n1 [LY2157299] | 33079.0 AU | 15107.1 AU | – | – |
| CC(C)(C)Cn1c(N)nc2ccc(-c3[nH]c(C(C)(C)C)nc3-c3ccc(F)cc3)nc21 [LY2228820] | 88.7 AU | 5927.3 AU | – | – |
